Values of other authors as cited in patent US20070178099A1, “Suppression of TNFalpha and IL-12 in therapy” (The Kennedy Institute of Rheumatology, priority 1996, published 2007).
Where two headings read alike, the source gives them in different places.

Assays:
Crohn's disease = settings: open-label trial

cA2: chimeric anti-TNF antibody: variable region of mouse anti-human TNF IgG1 antibody A2 and constant regions of human IgG1, kappa immunoglobulin
clinical effect in Crohn's disease (Crohn's disease): Beneficial effects | clinical effect in rheumatoid arthritis (rheumatoid arthritis; open-label trials): suppression of inflammation and with successful retreatment after relapse | clinical effect in rheumatoid arthritis (rheumatoid arthritis; randomized, double-blind, placebo-controlled trial): suppression of inflammation
